Measurements as given in patent EP0647645A1, “Novel antitumoral and antiviral compound” (PHARMA MAR, S.A., priority 1993, dated 1995).

Key:
[1] = tested on: P-388 cells; assay: antitumoral assay, P-388 cell growth inhibition (cell counting); type: cell-based, DBA/2 mouse; conditions: three days of incubation
Experimental: (§1) Pateamine was diluted in MeOH/CH₂Cl₂ 1:1 at 100 ng/ml and it has been tested at different concentrations. The solvent was added to evaporate before the cells were seeded.
(§2) Four general antitumoral assays, employing the currently accepted screening protocols have been carried out using the following cells: P-388 (lymphoid neoplasm from DBA/2 mouse) A-549 (human lung carcinoma) HT-29 (human colon carcinoma) KB (human oral epidermoid carcinoma)
P-388 cells were seeded into 16 mm wells at 1 x 10⁴ per well in 1 ml aliquots of MEM 10FCS containing the indicated concentration or drug. All determinations were carried out in duplicate. After three days of incubation cells were counted and the IC₅₀ was determined. DATA TABLE-I

[2] = tested on: A-549 cells; assay: antitumoral assay, A-549 cell growth inhibition (cell counting); type: cell-based, human; conditions: three days of incubation
Experimental: as §1, §2
(§3) A-549 cells were seeded into 16 mm wells at 2 x 10⁴ per well. The day after the inoculum was replaced by 1 ml aliquots of MEM 10FCS containing the indicated concentration of drug. All determination were carried out in duplicate. After three days of incubation cells were counted and the IC₅₀ was determined. DATA TABLE-II

[3] = tested on: HT-29 cells; assay: antitumoral assay, HT-29 cell growth inhibition (cell counting); type: cell-based, human; conditions: four days of incubation
Experimental: as §1, §2
as §3, with “HT-29” for “A-549”, “4” for “2”, “determinations” for “determination”, “four” for “three”, “TABLE-III” for “TABLE-II”

[4] = tested on: KB cells; assay: antitumoral assay, KB cell growth inhibition (cell counting); type: cell-based, human; conditions: four days of incubation
Experimental: as §1, §2
as §3, with “KB” for “A-549”, “X” for “x”, “10⁴ cells” for “10⁴”, “determinations” for “determination”, “four” for “three”, “TABLE-IV” for “TABLE-II”

[5] = tested on: CV-1 cells; assay: cytotoxicity assay, CV-1 cell growth inhibition (cell counting); type: cell-based, monkey; conditions: four days of incubation
Experimental: as §1
(§4) Two types of cytotoxicity assays were conducted, one of them employing conventional screening protocols and the other using the MTT method. In both cases the cells were: CV-1 (monkey kidney fibroblast) BHK (hamster kidney fibroblast)
as §3, with “CV-1” for “A-549”, “determinations” for “determination”, “four” for “three”, “TABLE-V” for “TABLE-II”

[6] = tested on: BHK cells; assay: cytotoxicity assay, BHK cell growth inhibition (cell counting); type: cell-based, hamster; conditions: three days of incubation
Experimental: as §1, §4
as §3, with “BHK” for “A-549”, “X” for “x”, “determinations” for “determination”, “TABLE-VI” for “TABLE-II”

[7] = tested on: CV-1 cells; assay: cytotoxicity assay, MTT method, CV-1 cells; type: cell-based, monkey; conditions: three days of incubation
Experimental: as §4
(§5) CV-1 and BHK cells were seeded into 9 mm wells at 1 x 10⁴ cells per well (logarithmic phase) and at 2 x 10⁵ cells per well (stationary phase). The day after the inoculum was replaced by […] aliquots of MEM 10FCS containing different concentrations of drug. All determinations were carried out in duplicate. After three days of incubation, 50 µl of medium containing 100 µg of MTT were added. Plates were incubated for two hours, medium was removed and 100 µl of isopropanol were added. The absorbencies were determined with a microtiter reader. DATA TABLE-VII

[8] = tested on: BHK cells; assay: cytotoxicity assay, MTT method, BHK cells; type: cell-based, hamster; conditions: three days of incubation
Experimental: as §4, §5

[9] = tested on: HSV-1 (herpes simplex virus, type 1); assay: antiviral assay, plaque reduction, HSV-1 in CV-1 cells; type: cell-based
[10] = tested on: VSV (vesicular stomatitis virus); type: cell-based
[11] = tested on: P388 cell line; assay: P388 assay of fractions during isolation; type: cell-based; conditions: isolation fractions and free base form
Experimental: The sponge N.sp2 was extracted with methanol and a 3:1 mixture of methanol dichloromethane. An aqueous suspension of the entire 1 Kg extract of Mycale was extracted with three equivalent volumes of chloroform which was in turn back-extracted with distilled water. The organic extract (7.5 g) was loaded onto a C₁₈ flash column (200 g freshly prepared). Elution was started with 50% water/methanol, the methanol content was increased in steps to 100%, and then dichloromethane was added in gradual increments to 50%. Sixteen fractions were collected, weighed and assayed. Good total recovery of mass and activity was obtained with most of the activity confined to one fraction. […] A gradient solvent system was used (CH₂Cl₂, EtOAc, MeOH) and the fractions were monitored by TLC. Much of the fatty acids and pigments were eluted with the mixtures of CH₂Cl₂ and EtOAc, while a yellow charring (H₂SO₄ on silica) material came off in 5 - 20% MeOH in EtOAc. The fractions containing the yellow char were combined to yield a mass of 240 mg. […] This fraction was further purified using amino cartridges (500 mg). The activity was eluted with MeOH to yield 45 mg of material (IC₅₀ 0.5 ng/ml P388). Final purifications was obtained on a LH20 column using the eluting solvent system 9:1 MeOH/CH₂Cl₂ with 2% concentrated aqueous ammonia. This was selected to keep the active component in a free base form. […]

[12] = tested on: Balb/c lymphocytes; type: cell-based, mice
[13] = tested on: CV-1 cells; assay: cytotoxicity in antiviral assay, inhibition zone on the CV-1 cell sheet; conditions: CV-1/HSV-1

Substance: pateamine
- % Inhibition P-388 cell growth ([1]; 0.1ng): 11%
- % Inhibition P-388 cell growth ([1]; 0.5ng): 0%
- % Inhibition P-388 cell growth ([1]; 1ng): 100%
- % Inhibition P-388 cell growth ([1]; 5ng): 100%
- % Inhibition P-388 cell growth ([1]; 10ng): 100%
- IC₅₀ ng/ml approx. ([1]; P-388 cell growth): ~0.3 ng/mL
- % Inhibition A-549 cell growth ([2]; 0.1ng): 0%
- % Inhibition A-549 cell growth ([2]; 0.5ng): 0%
- % Inhibition A-549 cell growth ([2]; 1ng): 71%
- % Inhibition A-549 cell growth ([2]; 5ng): 100%
- % Inhibition A-549 cell growth ([2]; 10ng): 100%
- IC₅₀ ng/ml approx. ([2]; A-549 cell growth): ~0.7 ng/mL
- % Inhibition HT-29 cell growth ([3]; 0.1ng): 0%
- % Inhibition HT-29 cell growth ([3]; 0.5ng): 0%
- % Inhibition HT-29 cell growth ([3]; 1ng): 35%
- % Inhibition HT-29 cell growth ([3]; 5ng): 85%
- % Inhibition HT-29 cell growth ([3]; 10ng): 91%
- IC₅₀ ng/ml approx. ([3]; HT-29 cell growth): ~2 ng/mL
- % Inhibition KB cell growth ([4]; 0.1ng): 70%
- % Inhibition KB cell growth ([4]; 0.5ng): 67%
- % Inhibition KB cell growth ([4]; 1ng): 96%
- % Inhibition KB cell growth ([4]; 5ng): 100%
- % Inhibition KB cell growth ([4]; 10ng): 100%
- IC₅₀ ng/ml approx. ([4]; KB cell growth): <0.05 ng/mL
- % Inhibition CV-1 cell growth ([5]; 0.1ng): 0%
- % Inhibition CV-1 cell growth ([5]; 0.5ng): 0%
- % Inhibition CV-1 cell growth ([5]; 1ng): 31%
- % Inhibition CV-1 cell growth ([5]; 5ng): 84%
- % Inhibition CV-1 cell growth ([5]; 10ng): 100%
- IC₅₀ ng/ml approx. ([5]; CV-1 cell growth): ~2.4 ng/mL
- % Inhibition BHK cell growth ([6]; 0.1ng): 0%
- % Inhibition BHK cell growth ([6]; 0.5ng): 0%
- % Inhibition BHK cell growth ([6]; 1ng): 0%
- % Inhibition BHK cell growth ([6]; 5ng): 98%
- % Inhibition BHK cell growth ([6]; 10ng): 100%
- IC₅₀ ng/ml approx. ([6]; BHK cell growth): ~3 ng/mL
- IC₅₀ ([7]; log. phase): 2.4 ng/mL
- IC₅₀ ([7]; stat. phase): >100 ng/mL
- IC₅₀ ([8]; log. phase): 3.7 ng/mL
- IC₅₀ ([8]; stat. phase): >100 ng/mL
- % Inhibition CV-1/HSV-1 (plaque reduction sign) ([9]; 20ng): + (The sign (+), indicates that plaques are reduced by approx. 50-60%.)
- % Inhibition CV-1/HSV-1 (plaque reduction sign) ([9]; 40ng): ++ (The sign (+ +), indicates that plaques are reduced by approx. 70-90%.)
- % Inhibition CV-1/HSV-1 (plaque reduction sign) ([9]; 100ng): +++ (The sign (+ + +), indicates that plaques are reduced 100%.)
- % Inhibition CV-1/HSV-1 (plaque reduction sign) ([9]; 200ng): +++ (The sign (+ + +), indicates that plaques are reduced 100%.)
- % Inhibition CV-1/HSV-1 (plaque reduction sign) ([9]; 400ng): +++ (The sign (+ + +), indicates that plaques are reduced 100%.)
- IC₅₀ ng/disk ([9]; CV-1/HSV-1, ( + ) is the approximately IC₅₀): 20 ng/disk
- IC₅₀ ng/disk [10]: >20 ng/disk
- IC₅₀ [11]: 0.15 ng/mL
- IC₅₀ for the LcV [12]: 4.1 µg/mL
- cytotoxicity for the cells, inhibition zone on the cell sheet ([13]; 10ng): 6
- cytotoxicity for the cells, inhibition zone on the cell sheet ([13]; 20ng): 10
- cytotoxicity for the cells, inhibition zone on the cell sheet ([13]; 40ng): 12
- cytotoxicity for the cells, inhibition zone on the cell sheet ([13]; 100ng): 14
- cytotoxicity for the cells, inhibition zone on the cell sheet ([13]; 200ng): 16
- cytotoxicity for the cells, inhibition zone on the cell sheet ([13]; 400ng): 16
